What was measured:
[1] = tested on: neuroblastoma-spinal cord hybrid NSC-34 cells; assay: Neuroprotective effect/cell viability analysis in NSC-34 cells against H2O2 induced oxidative stress; assay type: cell-based; details: for neuroprotection in scavenging neurotoxic effects of H2O2 compared to EDR / viability compared to EDR: 250 μM H2O2; for viability compared to EDR: 50 μM dose
Experimental: (§1) Methods: The in vitro properties and antioxidant abilities of the synthesized B^5-EDR analogues were assessed in cell-based assays. […] The methodology employed for each of these assays is detailed below.
(iii) Methodology for neuroprotective effect/cell viability analysis in (NSC-34) cells (FIGS. 8A-B): Briefly, NSC-34 cells with about 20 k cells per well in 96 well plates were cultured in a complete medium consisting of high glucose Dulbecco's modified eagle medium (DMEM) (Thermo Fisher Scientific) supplemented with about 10% US-origin fetal bovine serum (Thermo Fisher Scientific), GlutaMAX-1, about 200 mM (100×) (Thermo Fisher Scientific), about 1% 100 mM Sodium pyruvate and about 1% 10,000 U/mL penicillin-streptomycin solution (Thermo Fisher Scientific) for about 20 h to reach confluency of about 70%—about 75%. All the cells were cultured in an incubator with about 5% of CO2 at about 37° C. About 20 kcells/100 μl/well were seeded in 96 well plates for about 20 h in triplicates. […] After about 1 h, the cells were treated with 250 μM of H2O2 for about 2 h. After a total period of about 3 h, about 10 μl of WST-8 reagent was added in each well and the absorbance readings were recorded after about 2.5 h at about 450 nm. All the experiments were repeated at least three times and measurements were run in triplicates.

[2] = tested on: neuroblastoma-spinal cord hybrid NSC-34 cells; assay: as above; assay type: cell-based; details: prophylactic treatment, 250 μM H2O2, FIG. 7A
[3] = molecular target: P-glycoprotein (Pgp) efflux pump (Homo sapiens, UniProt P08183); details: cited from earlier work
[4] = tested on: ALS; details: patients in early stages, drug for 6 months or more; cited from earlier work
[5] = cited from earlier work
[6] = tested on: primary cortical neuronal cells; assay: Neurotoxicity/cell viability analysis in primary cortical neuronal cells (WST-8); assay type: cell-based, mouse; details: for cell viability compared to controls: 10 μM and 1 μM, FIG. 6B
Experimental: as §1
(i) Methodology for neurotoxicity/cell viability analysis in primary cortical neuronal cells (FIGS. 6A-B): Briefly, the cerebral cortex was isolated from fetus of mouse at about 17-about 18-day gestation. After meninges and blood vessels were removed, the tissue was digested with trypsin for about 15 min at about 37° C., then incubated with DNase for about another 15 min at about 37° C. and terminated with DMEM plus about 10% fetal bovine serum. After the supernatant was removed, the tissue was added with about 5-ml neurobasal medium (Life Technologies Inc) and triturated by gently pipetting. Neuronal cells contained in the supernatant were transferred to poly-D-lysine-coated plastic culture plates, adjusted to approximately […], and cultured in neurobasal medium with GS21 supplements (Sigma-Aldrich Canada), 1× GlutaMax (Life Technologies Inc,) and about 1% penicillin-streptomycin at about 37° C. under about 5% CO2. About 100 kcells/100 μl/well were seeded in 96 well plates for 2 Div. […] On 8th Div of neurons, about 10 μl of WST reagent was added to each well and incubated for about 2 h. After about 2 h of incubation, the absorbance of soluble coloured formazan dye was measured […] at about […] using microplate reader (Biotek instruments) with the background control as a blank. The cell viability was determined by comparing the absorbance of compounds treated cells to that of control cells. Data are representative of two independent experiments, with each measurement or dose tested six times.

[7] = tested on: neuroblastoma-spinal cord hybrid NSC-34 cells; assay: Neurotoxicity/cell viability analysis in NSC-34 cells (WST-8); assay type: cell-based; details: 1 to 100 μM
Experimental: as §1
(ii) Methodology for neurotoxicity/cell viability analysis in (NSC-34) cells (FIGS. 7A-C): Briefly, NSC-34 cells with about 20 k cells per well in 96 well plates were cultured in a complete medium consisting of high glucose Dulbecco's modified eagle medium (DMEM) (Thermo Fisher Scientific) supplemented with about 10% US-origin fetal bovine serum (Thermo Fisher Scientific), GlutaMAX-1, about 200 mM (100×) (Thermo Fisher Scientific), about 1% 100 mM Sodium pyruvate and about 1% 10,000 U/mL penicillin-streptomycin solution (Thermo Fisher Scientific) for about 20 h to reach confluency of about 70%—about 75%. All the cells were cultured in an incubator with about 5% of CO2 at about 37° C. About 20 kcells/100 μl/well were seeded in 96 well plates for about 20 h in triplicates. Cells were treated with different concentration of compounds and incubated for about 20 h. […] After about 2.5 h of incubation, the absorbance of soluble coloured formazan dye was measured […] at about […] using microplate reader (Biotek instruments) with the background control as a blank. The cell viability was determined by comparing the absorbance of compounds treated cells to that of control cells. […]

[8] = molecular target: CYP3A4 enzymes (Homo sapiens, UniProt P08684); details: cited from earlier work
Sequence of CYP3A4 enzymes (P08684 whole entry): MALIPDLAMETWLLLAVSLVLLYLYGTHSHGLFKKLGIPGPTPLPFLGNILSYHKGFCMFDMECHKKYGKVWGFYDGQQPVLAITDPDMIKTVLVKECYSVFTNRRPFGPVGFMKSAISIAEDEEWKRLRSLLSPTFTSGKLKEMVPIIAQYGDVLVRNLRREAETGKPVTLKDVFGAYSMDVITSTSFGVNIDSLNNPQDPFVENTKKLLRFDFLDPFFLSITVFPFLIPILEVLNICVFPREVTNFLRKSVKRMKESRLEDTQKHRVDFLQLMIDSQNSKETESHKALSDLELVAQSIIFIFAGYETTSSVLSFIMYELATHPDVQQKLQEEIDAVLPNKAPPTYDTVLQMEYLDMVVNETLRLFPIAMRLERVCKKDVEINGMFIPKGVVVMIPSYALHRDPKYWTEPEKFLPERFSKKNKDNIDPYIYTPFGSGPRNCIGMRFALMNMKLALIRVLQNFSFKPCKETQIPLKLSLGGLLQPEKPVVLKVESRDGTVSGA

Sequence of P-glycoprotein (Pgp) efflux pump (P08183 whole entry): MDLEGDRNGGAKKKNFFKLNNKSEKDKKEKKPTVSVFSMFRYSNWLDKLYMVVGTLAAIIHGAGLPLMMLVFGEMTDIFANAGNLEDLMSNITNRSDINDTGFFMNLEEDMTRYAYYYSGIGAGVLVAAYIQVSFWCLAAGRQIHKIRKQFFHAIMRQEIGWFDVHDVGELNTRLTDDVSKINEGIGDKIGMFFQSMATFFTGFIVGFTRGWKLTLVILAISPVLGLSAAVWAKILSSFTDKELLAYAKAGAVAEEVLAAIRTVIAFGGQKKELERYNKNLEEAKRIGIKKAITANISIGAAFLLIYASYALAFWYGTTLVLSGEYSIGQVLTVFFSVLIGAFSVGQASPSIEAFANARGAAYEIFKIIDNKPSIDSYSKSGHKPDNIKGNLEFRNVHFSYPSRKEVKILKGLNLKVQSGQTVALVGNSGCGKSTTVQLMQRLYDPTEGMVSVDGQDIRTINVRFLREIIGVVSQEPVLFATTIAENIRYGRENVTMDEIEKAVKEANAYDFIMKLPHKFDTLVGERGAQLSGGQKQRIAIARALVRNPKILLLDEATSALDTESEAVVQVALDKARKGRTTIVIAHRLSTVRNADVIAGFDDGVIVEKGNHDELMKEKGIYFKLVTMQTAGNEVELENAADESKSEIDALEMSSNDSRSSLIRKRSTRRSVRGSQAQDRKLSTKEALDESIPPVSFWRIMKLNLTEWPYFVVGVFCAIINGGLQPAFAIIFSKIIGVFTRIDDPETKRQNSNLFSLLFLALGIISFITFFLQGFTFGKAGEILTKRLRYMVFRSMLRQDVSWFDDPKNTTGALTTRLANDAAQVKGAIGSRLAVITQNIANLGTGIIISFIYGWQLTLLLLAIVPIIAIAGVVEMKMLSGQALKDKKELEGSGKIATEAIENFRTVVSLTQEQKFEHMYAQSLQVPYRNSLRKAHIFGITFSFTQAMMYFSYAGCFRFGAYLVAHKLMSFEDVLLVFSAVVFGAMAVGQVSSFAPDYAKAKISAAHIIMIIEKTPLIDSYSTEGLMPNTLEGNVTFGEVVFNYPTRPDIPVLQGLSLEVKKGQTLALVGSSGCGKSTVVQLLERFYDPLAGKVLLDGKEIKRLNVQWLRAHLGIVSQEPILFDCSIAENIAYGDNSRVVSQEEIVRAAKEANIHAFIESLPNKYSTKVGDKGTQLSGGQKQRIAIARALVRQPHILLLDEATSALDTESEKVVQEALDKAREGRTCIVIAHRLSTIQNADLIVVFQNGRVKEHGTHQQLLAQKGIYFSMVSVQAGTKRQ

SMILES | neuroprotection in scavenging neurotoxic effects of H2O2 compared to EDR ([1]; 25 μM) | viability compared to EDR [1] | protection from loss of cell viability induced by H2O2 [2] | P-glycoprotein efflux pump substrate status [3] | effect on progression of ALS [4] | aqueous solubility [5] | fraction of EDR existing as an anion ([5]; physiological pH about 7.4) | fraction of EDR existing in neutral form ([5]; physiological pH about 7.4) | H2O2 scavenging effects ([1]; 250 μM H2O2, FIGS. 8A-B) | decrease in cell viability compared to control (DMSO) ([6]; mouse, 6 days, 25 μM) [%] | neurotoxicity and cytotoxicity towards NSC-34 motor neuronal cells [7] | metabolism by CYP3A4 [8] | neuroprotection in scavenging neurotoxic effects of H2O2 compared to EDR ([1]; 1 μM) | cell viability compared to controls [6]
CC1(C)OB(c2cc(C(F)(F)F)nn2-c2ccccc2)OC1(C)C [NS-1-12, 3-triflouromethyl-5-(4,4,5,5-tetramethyl-1,3,2-dioxaborolan-2-yl)-1-phenyl1H-pyrazole] | better neuroprotection | almost equal viability | – | – | – | – | – | – | – | – | – | – | – | –
CC1=NN(c2ccccc2)C(=O)C1 [EDR, 3-methyl-1-phenyl-2-pyrazolin-5-one] | – | – | protected NSC-34 cells from loss of cell viability | substrate | delayed the progression of ALS | about 1.85 mg/ml | about 71.5% | about 28.5% | significant H2O2 scavenging effects in a dose dependent manner | ~70±10 | no neurotoxicity and cytotoxicity | metabolized pre-systematically | – | –
F[B-](F)(F)c1cc(C(F)(F)F)nn1-c1ccccc1.[K+] [NS-1-19, Potassium trifluoro(3-triflouromethyl-1phenyl-1H-pyrazol-5-yl)borate] | better neuroprotection | almost equal viability | – | – | – | – | – | – | – | – | – | – | better neuroprotection | around 100%
Cc1cc([B-](F)(F)F)n(-c2ccccc2)n1.[K+] [NS-1-21, Potassium trifluoro(3-methyl-1phenyl-1H-pyrazol-5-yl)borate] | better neuroprotection | almost equal viability | – | – | – | – | – | – | – | – | – | – | better neuroprotection | around 100%
